Results from patent US7998948B2, “Pharmaceutical composition for treating esophageal cancer” (Eisai R&D Management Co., Ltd., priority 2007, dated 2011).

Tests used:
Assay type in all cases: cell-based
[1] = system: OE33 human esophageal cancer cells; assay: Inhibitory action against proliferation of human esophageal cancer cells (OE33); conditions: OE33, 72 h, 0E33 cells, RPMI1640 with 10% FBS, 3 days incubation, Cell Counting Kit-8, read-out: concentration of the test substance required to inhibit 50% of cell proliferation (IC50), 0E33
Protocol: (§1) Human esophageal cancer cells (OE19, OE21 and OE33) were purchased from Dainippon Sumitomo Pharma Co., Ltd. OE19, OE21 or was suspended in RPMI1640 medium (purchased from Sigma) containing 10% FBS. The cell suspension (2×10^4 cells/ml) was dispensed into a 96-well plate (purchased from FALCON; product No. 353075) by 0.1 ml/well, and incubated at 37° C. in a 5% CO2 incubator overnight. After the incubation, 0.1 ml of the test substance diluted with RPMI1640 medium containing 10% FBS was added to each well, which was further incubated for 3 days in the 5% CO2 incubator (37° C.). After the incubation, 10 μl of Cell Counting Kit-8 (purchased from DOJINDO Laboratories) was added to each well, which were incubated for about 2 hours in the 5% CO2 incubator (37° C.). After the incubation, the absorbance of the each well was measured using a plate reader MTP-500 (Corona Electric Co., Ltd) with a measurement wavelength of 450 nm and a control wavelength of 660 nm. A ratio of absorbance (%) of each well with the test substance against the wells without the test substance was determined, and based on this ratio, the concentration of the test substance required to inhibit 50% of cell proliferation (IC50; μM) was determined and the results are shown in Table 1.

[2] = system: OE19 human esophageal cancer cells; assay: Inhibitory action against proliferation of human esophageal cancer cells (OE19); conditions: OE19, 72 h, 0E19 cells, RPMI1640 with 10% FBS, 3 days incubation, Cell Counting Kit-8, read-out: concentration of the test substance required to inhibit 50% of cell proliferation (IC50), 0E19
Protocol: as §1

[3] = system: OE21 human esophageal cancer cells; assay: Inhibitory action against proliferation of human esophageal cancer cells (OE21); conditions: OE21, 72 h, 0E21 cells, RPMI1640 with 10% FBS, 3 days incubation, Cell Counting Kit-8, read-out: concentration of the test substance required to inhibit 50% of cell proliferation (IC50), 0E21
Protocol: as §1

Row | IC50 [1] [µM] | IC50 [2] [µM] | IC50 [3] [µM] | SMILES
1 | 0.25 | 3.2 | 7.4 | O=C(Nc1cc(Oc2cc(F)c(NC(=O)C3(C(=O)Nc4ccc(F)cc4)CC3)cc2F)ccn1)N1CC(CO)C1 [N-(2,5-Difluoro-4-{[2-({[3-(hydroxymethyl)azetidin-1-yl]carbonyl}amino)pyridin-4-yl]oxy}phenyl)-N′-(4-fluorophenyl)cyclopropane-1,1-dicarboxamide]
2 | 0.67 | 3.5 | 3 | CN1CCN(C2CCN(C(=O)Nc3cc(Oc4cc(F)c(NC(=O)C5(C(=O)Nc6ccc(F)cc6)CC5)cc4F)ccn3)CC2)CC1 [N-(2,5-Difluoro-4-{[2-({[4-(4-methylpiperazin-1-yl)piperidin-1-yl]carbonyl}amino)pyridin-4-yl]oxy}phenyl)-N′-(4-fluorophenyl)cyclopropane-1,1-dicarboxamide]
3 | 0.14 | 2.3 | 1.7 | CN1CCC(N(C)C(=O)Nc2cc(Oc3cc(F)c(NC(=O)C4(C(=O)Nc5ccc(F)cc5)CC4)cc3F)ccn2)CC1 [N-(2,5-Difluoro-4-{[2-({[methyl(1-methylpiperidin-4-yl)amino]carbonyl}amino)pyridin-4-yl]oxy}phenyl)-N′-(4-fluorophenyl)cyclopropane-1,1-dicarboxamide]
4 | 1.6 | 3.6 | 5.5 | CN1CCN(C2CCN(C(=O)Nc3cc(Oc4ccc(NC(=O)C5(C(=O)Nc6ccc(F)cc6)CC5)c(F)c4)ccn3)CC2)CC1 [N-(2-Fluoro-4-{[2-({[4-(4-methylpiperazin-1-yl)piperidin-1-yl]carbonyl}amino)pyridin-4-yl]oxy}phenyl)-N′-(4-fluorophenyl)cyclopropane-1,1-dicarboxamide]
5 | 0.18 | 4.2 | > 10 | O=C(Nc1cc(Oc2ccc(NC(=O)C3(C(=O)Nc4ccc(F)cc4)CC3)c(F)c2)ccn1)N1CCC1 [N-[4-({2-[(Azetidin-1-ylcarbonyl)amino]pyridin-4-yl}oxy)-2-fluorophenyl]-N′-(4-fluorophenyl)cyclopropane-1,1-dicarboxamide]
6 | 0.24 | 5.2 | 6.4 | O=C(Nc1cc(Oc2cc(F)c(NC(=O)C3(C(=O)Nc4ccc(F)cc4)CC3)cc2F)ccn1)N1CC(O)C1 [N-{2,5-Difluoro-4-[(2-{[(3-hydroxyazetidin-1-yl)carbonyl]amino}pyridin-4-yl)oxy]phenyl}-N′-(4-fluorophenyl)cyclopropane-1,1-dicarboxamide]
